Source: patent US11485728B2, “Small molecules for the treatment of autoimmune diseases and cancer” (Athos Therapeutics, Inc., priority 2020, dated 2022)
pIC50: −log10 of the molar value.

Key:
[1] = In-vitro half-life in rat liver microsomes; assay type: in vitro ADME; details: Rat liver microsomes 0.5 mg/mL; 1 μg/mL drug; NRS; read-out: Metabolic Half-life
Method: (§1) In each of the species (human, rat, mouse) of liver matrix to be tested, a working concentration of 2 μg/mL was prepared of each test article from the 0.5 mg/mL DMSO stock solution by adding 3 μL of 0.5 mg/mL test article stock solution to 747 μL of the 1 mg/mL liver matrix. Incubation was performed at 37±2° C. with gentle, continuous mixing in shaking water bath in 2.0 mL-well capacity 96-Deepwell plates (96-DWP). Samples were retrieved in duplicate at the following time points: 0, 5, 10, 15, 30 and 60 minutes. The final mixture contained 1 μg/mL of drug and 0.5 mg/mL of liver matrix. First, 50 μL of test articles in liver matrix was added to the 96-DWP and pre-warmed the mixture in the 96-DWP for 2 minutes in the 37° C. water bath. The enzymatic reaction was started by the addition of 50 μL of the corresponding 2× NADPH regenerating system (NRS) cofactor solution to all sample wells and stopped by the addition of 300 μL of stop solution (acetonitrile containing 10 ng/mL Tolbutamide as an internal standard (I.Std.). The samples were agitated for 10 minutes and then centrifuged for 20 minutes at 4500 rpm. 25 μL of supernatant was diluted with 475 μL acetonitrile containing I. Std. into a new 96-DWPs for LC-MS/MS analysis.
(§2) Half-life calculations were generated and calculated by Graphpad Prism® software. The half-life of test compound was calculated based on the first-order reaction kinetics. The data was transformed to linear regression (y=log(y) where “y” axis represents the % compound remaining at any given time with respect to time 0 minutes; “x” axis represents time in minutes) in order to calculate the half-life.
(§3) A comparison of metabolic stability in time-course incubation experiments in varying species of liver can provide information of pharmacokinetic properties of drugs attributable to species-related differences in hepatic metabolism. The results of these experiments often assist in further applications such as assessing in vitro metabolite profiling and choosing relevant species for toxicology studies based on similarities relative to the metabolic stability to the human profile. For these experiments, the test compound was tested in parallel with a positive control, Dasatinab, in an enzymatic reaction solution of each species (human and rat) of liver microsomes containing a NADPH regenerating system (NRS). The final mixture contained 1 μg/mL of drug and 0.5 mg/mL of liver matrix. Incubations were performed at 37±2° C. with gentle, continuous mixing in shaking water bath in 96-Deep well plates. The stability of the test compound is monitored using fast, specific and sensitive LC/MS/MS analysis.

[2] = In-vitro half-life in mouse liver microsomes; assay type: in vitro ADME; details: Mouse liver microsomes 0.5 mg/mL; 1 μg/mL drug; NRS; read-out: Metabolic Half-life
Method: as §1, §2, §3

CYP2C9 = molecular target: T1, CYP2C9 (Homo sapiens, UniProt P11712); test: CYP-direct inhibition, CYP2C9; assay type: in vitro ADME
T1 construct: from tissue; host or cells: pooled human liver microsomes
T1 sequence (P11712 whole entry): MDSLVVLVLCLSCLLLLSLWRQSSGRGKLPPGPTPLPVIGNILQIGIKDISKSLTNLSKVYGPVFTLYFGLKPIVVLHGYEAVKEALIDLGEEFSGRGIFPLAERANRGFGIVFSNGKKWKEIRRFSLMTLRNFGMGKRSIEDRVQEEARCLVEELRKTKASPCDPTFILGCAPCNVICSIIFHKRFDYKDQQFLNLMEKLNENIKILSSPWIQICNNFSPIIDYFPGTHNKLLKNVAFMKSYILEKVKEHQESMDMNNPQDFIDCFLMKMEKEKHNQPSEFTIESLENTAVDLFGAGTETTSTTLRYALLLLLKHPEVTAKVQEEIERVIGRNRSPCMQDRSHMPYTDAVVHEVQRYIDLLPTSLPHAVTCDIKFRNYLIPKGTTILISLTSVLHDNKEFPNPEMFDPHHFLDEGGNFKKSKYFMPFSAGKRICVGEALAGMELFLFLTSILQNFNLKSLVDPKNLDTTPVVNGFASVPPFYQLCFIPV
Method: (§4) Many drugs inhibit cytochrome P450 enzymes to cause clinically significant changes in the pharmacokinetics of other drugs. In vitro cytochrome P450 inhibition, can provide crucial information in evaluating potential clinical drug-drug interactions and is useful for focusing in vivo tests to areas of concern. The cytochrome P450 inhibition assay was developed by preparing a working cocktail solution consisting of six probe substrates 10 μM ethoxy-resorufin (CYP1A2), 100 μM rosiglitazone (CYP2C8), 50 μM diclofenac (CYP2C9), 300 μM S-mephenytoin (CYP2C19), 50 μM dextromethorphan (CYP2D6), and 20 μM midazolam (CYP3A4). A mixture solution consists of 140 uL of 0.286 mg/mL of pooled human liver microsome working solution and 20 uL working solutions of test articles, standard control inhibitors, or positive control placebo and 20 uL of substrate cocktail mixture working solution was prepared. The mixture solution was pre-warm in a gentle shaking bath at 37±2° C. for 5 minutes. The enzymatic reaction started by adding 20 uL of NRS working solution to the mixture solution and incubated for 10 minutes at 37±2° C. To stop the reaction, an addition of 400 μL cold stop solution (acetonitrile containing 50 ng/mL Tolbutamide as an internal standard (I.Std.) was added to the mixture solution. The final concentration of test article, inhibitors, substrates, and cofactors are noted in Table 0.1 below. Two individual samples were prepared for each test compound. The extracted samples were vortexed and then centrifuged at 4500 rpm for 7 minutes using Eppendorf Centrifuge 5910R. 200 uL of supernatant was diluting with 200 uL of 50% Methanol into 96-DW plate for LC/MS/MS analysis
(§5) Concentration-response plots are used to determine the effects of an inhibitor on an enzymatic reaction. A typical concentration-response plot provides fractional activity (Y axis) is plotted as a function of log inhibitor concentration (X axis). The data are fitted using a standard Sigmoidal dose-response equation which is also called a […] logistic equation. The concentration of compound that results in 50% inhibition of maximal activity is termed as the IC50 (inhibitor concentration yielding 50% inhibition). IC50 value is calculated using Prism GraphPad software, version 9. […].
(§6) Cytochrome P450 inhibition of a drug is a key factor in determining pharmacokinetic drug-drug interactions. The objective of this study was to evaluate the inhibition potential of G9a inhibitors on six (6) major human cytochrome P450 enzymes, including CYP1A2, CYP2C8, CYP2C9, CYP2C19, CYP2D6, and CYP3A4. Inhibition was determined by using a substrate cocktail and analyzing the rate of specific metabolites formation. The cytochrome P450 inhibition assay was developed using a cocktail consisting of six (6) probe substrates ethoxy-resorufin (CYP1A2), rosiglitazone (CYP2C8), diclofenac (CYP2C9), S-mephenytoin (CYP2C19), dextromethorphan (CYP2D6), and midazolam (CYP3A4). The cocktail was incubated in human liver microsome with NADPH regenerating system (NRS) in a shaking bath at 37±2° C. The formation of specific metabolites was monitored by LC/MS/MS. Test compound was added to the cocktail-liver microsome mixture at varying concentrations and its effect on cytochrome P450 activity was determined by analyzing the rate of specific metabolite formation. The percent inhibition was calculated and plotted with reference to the concentration, and the IC50 value for inhibition was derived by fitting the data with a using log(inhibitor) vs. normalized response with variable slope least squares fit by Graphpad Prism® software. […].

CYP2C19 = molecular target: T2, CYP2C19 (Homo sapiens, UniProt P33261); test: CYP-direct inhibition, CYP2C19; assay type: in vitro ADME
T2 construct: from tissue; host or cells: pooled human liver microsomes
T2 sequence (P33261 whole entry): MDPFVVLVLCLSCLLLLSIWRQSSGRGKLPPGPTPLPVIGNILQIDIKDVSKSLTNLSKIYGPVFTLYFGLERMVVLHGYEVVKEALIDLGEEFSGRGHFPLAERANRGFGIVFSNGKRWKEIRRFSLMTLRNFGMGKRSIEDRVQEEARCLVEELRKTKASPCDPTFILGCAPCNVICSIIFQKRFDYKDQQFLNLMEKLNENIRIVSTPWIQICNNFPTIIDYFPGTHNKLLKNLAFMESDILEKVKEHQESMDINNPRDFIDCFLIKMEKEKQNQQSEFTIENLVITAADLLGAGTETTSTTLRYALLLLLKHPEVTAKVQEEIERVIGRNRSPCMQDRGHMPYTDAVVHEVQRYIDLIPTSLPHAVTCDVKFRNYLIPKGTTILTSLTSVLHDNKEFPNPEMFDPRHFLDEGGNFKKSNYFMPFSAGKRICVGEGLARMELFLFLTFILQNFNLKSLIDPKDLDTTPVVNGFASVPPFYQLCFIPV
Method: as §4, §5, §6

CYP2D6 = molecular target: T3, CYP2D6 (Homo sapiens, UniProt P10635); test: CYP-direct inhibition, CYP2D6; assay type: in vitro ADME; details: human liver microsome; substrate dextromethorphan; read-out: IC50 CYP-2D6
T3 construct: from tissue; host or cells: pooled human liver microsomes
T3 sequence (P10635 whole entry): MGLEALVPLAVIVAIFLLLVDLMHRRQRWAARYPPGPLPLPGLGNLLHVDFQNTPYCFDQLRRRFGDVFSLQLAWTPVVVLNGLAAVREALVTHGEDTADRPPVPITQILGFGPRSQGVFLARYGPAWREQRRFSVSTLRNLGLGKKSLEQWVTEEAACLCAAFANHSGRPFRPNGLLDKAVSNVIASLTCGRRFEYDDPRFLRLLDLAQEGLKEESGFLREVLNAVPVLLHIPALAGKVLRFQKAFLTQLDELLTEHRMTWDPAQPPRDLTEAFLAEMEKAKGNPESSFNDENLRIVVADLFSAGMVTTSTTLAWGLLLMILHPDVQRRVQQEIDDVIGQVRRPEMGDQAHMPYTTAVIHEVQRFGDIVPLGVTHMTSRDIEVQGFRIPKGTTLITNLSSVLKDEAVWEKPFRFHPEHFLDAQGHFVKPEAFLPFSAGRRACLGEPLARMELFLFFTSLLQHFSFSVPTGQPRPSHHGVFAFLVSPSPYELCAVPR
Method: as §4, §5, §6

CYP3A4 = molecular target: T4, CYP3A4 (Homo sapiens, UniProt P08684); test: CYP-direct inhibition, CYP3A4; assay type: in vitro ADME
T4 construct: from tissue; host or cells: pooled human liver microsomes
T4 sequence (P08684 whole entry): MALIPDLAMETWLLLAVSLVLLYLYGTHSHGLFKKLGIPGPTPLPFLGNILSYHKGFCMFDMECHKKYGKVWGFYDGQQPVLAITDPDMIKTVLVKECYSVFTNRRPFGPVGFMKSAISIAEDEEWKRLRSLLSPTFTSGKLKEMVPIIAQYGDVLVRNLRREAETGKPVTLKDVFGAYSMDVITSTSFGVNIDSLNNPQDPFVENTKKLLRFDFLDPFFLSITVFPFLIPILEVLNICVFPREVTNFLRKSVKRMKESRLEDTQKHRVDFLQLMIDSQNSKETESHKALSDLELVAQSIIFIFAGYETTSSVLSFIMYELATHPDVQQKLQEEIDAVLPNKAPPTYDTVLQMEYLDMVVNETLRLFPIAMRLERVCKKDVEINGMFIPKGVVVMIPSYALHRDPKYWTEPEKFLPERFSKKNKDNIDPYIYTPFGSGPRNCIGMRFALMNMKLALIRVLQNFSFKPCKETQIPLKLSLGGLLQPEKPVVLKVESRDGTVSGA
Method: as §4, §5, §6

PAMPA permeability = details: PAMPA, 5 hours at RT
[3] = PAMPA permeability Classification, 20 μM donor
[4] = Permeability, Pe, 20 μM donor in PBS/MeOH 90:10

SMILES	half-life at 1 μg/mL [1] [h]	half-life at 1 μg/mL [2] [h]	pIC50 (CYP2C9)	pIC50 (CYP2C19)	pIC50 (CYP2D6)	pIC50 (CYP3A4)	Papp at 5 h, 20 μM (PAMPA permeability; [3]) [×10⁻⁶ cm/s]	Papp at 5 h, 20 μM (PAMPA permeability; [4]) [×10⁻⁶ cm/s]
COc1cc2c(NC3CCS(=O)(=O)CC3)nc(N3CCOCC3)nc2cc1OCCCN1CCCC1 [Compound 102, 4-((6-methoxy-2-morpholino-7-(3-(pyrrolidin-1-yl)propoxy)quinazolin-4-yl)amino)tetrahydro-2H-thiopyran 1,1-dioxide]	> 1	> 1	< 4.00	< 4.00	4.54	< 4.00	< 0.055	0.000648
COc1cc2c(NC3CCS(=O)(=O)CC3)nc(N3CCCN(C)CC3)nc2cc1OCCCN1CCCC1 [Compound 110, 4-((6-methoxy-2-(4-methyl-1,4-diazepan-1-yl)-7-(3-(pyrrolidin-1-yl)propoxy)quinazolin-4-yl)amino)tetrahydro-2H-thiopyran 1,1-dioxide]	> 1	> 1	< 4.00	< 4.00	< 4.00	< 4.00	< 0.055	0.00676
COc1cc2c(Nc3ccncc3)nc(-n3ccnc3)nc2cc1OCCCN1CCCC1 [Compound 130, 2-(1H-imidazol-1-yl)-6-methoxy-N-(pyridin-4-yl)-7-(3-(pyrrolidin-1-yl)propoxy)quinazolin-4-amine]	> 1	0.535	4.18	4.12	5.31	5.41	< 0.055	0.0129
COc1cc2c(NC3CCN(C(C)C)CC3)nc(-n3ccnc3)nc2cc1OCCCN1CCCC1 [Compound 156, 2-(1H-imidazol-1-yl)-N-(1-isopropylpiperidin-4-yl)-6-methoxy-7-(3-(pyrrolidin-1-yl)propoxy)quinazolin-4-amine]	> 1	0.988	< 4.00	< 4.00	5.33	< 4.00	< 0.055	0.00225
COc1cc2c(NC3CCN(C(C)C)CC3)nc(-n3cccn3)nc2cc1OCCCN1CCCC1 [Compound 157, N-(1-isopropylpiperidin-4-yl)-6-methoxy-2-(1H-pyrazol-1-yl)-7-(3-(pyrrolidin-1-yl)propoxy)quinazolin-4-amine]	> 1	> 1	< 4.00	< 4.00	4.19	< 4.00	< 0.055	0.000555
COc1cc2c(N[C@H]3CCCNC3)nc(N3CCCC3)nc2cc1OCCCN1CCCC1 [Compound 158, (S)-6-methoxy-N-(piperidin-3-yl)-2-(pyrrolidin-1-yl)-7-(3-(pyrrolidin-1-yl)propoxy)quinazolin-4-amine]	0.55	0.637	< 4.00	< 4.00	4.18	< 4.00	< 0.055	0.00453
COc1cc2c(N[C@@H]3CCCNC3)nc(N3CCCC3)nc2cc1OCCCN1CCCC1 [Compound 159, (R)-6-methoxy-N-(piperidin-3-yl)-2-(pyrrolidin-1-yl)-7-(3-(pyrrolidin-1-yl)propoxy)quinazolin-4-amine]	0.555	0.655	< 4.00	< 4.00	4.29	< 4.00	< 0.055	0.0227

Results, then the compound that gave them:

half-life at 1 μg/mL [1] [h]	half-life at 1 μg/mL [2] [h]	pIC50 (CYP2C9)	pIC50 (CYP2C19)	pIC50 (CYP2D6)	pIC50 (CYP3A4)	Papp at 5 h, 20 μM (PAMPA permeability; [3]) [×10⁻⁶ cm/s]	Papp at 5 h, 20 μM (PAMPA permeability; [4]) [×10⁻⁶ cm/s]	SMILES
> 1	> 1	< 4.00	< 4.00	4.37	< 4.00	< 0.055	0.00298	COc1cc2c(NC3CCS(=O)(=O)CC3)nc(N3CCCC3)nc2cc1OCCCN1CCCC1 [Compound 80, 4-((6-methoxy-2-(pyrrolidin-1-yl)-7-(3-(pyrrolidin-1-yl)propoxy)quinazolin-4-yl)amino)tetrahydro-2H-thiopyran 1,1-dioxide]
> 1	> 1	< 4.00	< 4.00	< 4.00	< 4.00	< 0.055	0.0119	COc1cc2c(NC3CCS(=O)(=O)CC3)nc(N3CCS(=O)(=O)CC3)nc2cc1OCCCN1CCCC1 [Compound 103, 4-(4-((1,1-dioxidotetrahydro-2H-thiopyran-4-yl)amino)-6-methoxy-7-(3-(pyrrolidin-1-yl)propoxy)quinazolin-2-yl)thiomorpholine 1,1-dioxide]
> 1	> 1	< 4.00	< 4.00	< 4.00	< 4.00	< 0.055	0.00475	COc1cc2c(NC3CCS(=O)(=O)CC3)nc(N3CCN(C)CC3)nc2cc1OCCCN1CCCC1 [Compound 109, 4-((6-methoxy-2-(4-methylpiperazin-1-yl)-7-(3-(pyrrolidin-1-yl)propoxy)quinazolin-4-yl)amino)tetrahydro-2H-thiopyran 1,1-dioxide]
